Source: patent US20250312365A1, “METHODS FOR INHIBITION OF SQUAMOUS CARCINOMA CELLS USING CERAMIDE MODULATORS” (The Trustees of Indiana University, priority 2024, published 2025)

Test system: human gingival squamous carcinoma cells (OECM1)
Experiment: Cell viability/proliferation assay (WST-1) in OECM1 cells
Assay type: cell-based
Conditions: each tested concentration (0.1 μg/ml and 1 μg/ml); WST-1
Description: In specific examples, colorimetric assays can be used to assess cellular viability and proliferation of cell cultures, such as MTT, WST-1, and resazurin assays. See, e.g., Präbst et al., Methods Mol Biol. 2017:1601:1-17.
Various cell lines were exposed to PGDHC, including human gingival squamous carcinoma cells (OECM1), tongue squamous carcinoma cells (SCC4, SCC9), and healthy human gingival epithelial control cells (OBA9) in vitro.
To elucidate the effects of C16:0 and dh-C16:0 on oral squamous cell carcinoma, the ability of exogenous C16:0 and dh-C16:0 to modulate proliferation and ceramidase expression in OECM1 cells was determined. […] In contrast, no effect of C16:0 on ASAH1 and ACER2 mRNA expressions.
LCL521 is a dose-dependent acid ceramidase inhibitor. Comparison of the concentration-dependent effects of an acid ceramidase inhibitor, LCL521 (MedChemExpress®), and the bacterial-isolated a15:0-15:0PE phospholipid on the viability of healthy human epithelial, OBA9, and oral squamous cancer cell lines, OECM1 and SCC9, in vitro was evaluated. […] (FIG. 15A). […] (FIG. 15B).

## phosphoglycerol dihydroceramide [PGDHC]
  viability of OECM1 cells: significantly inhibited
